# Measurements from patent US20250241901A1, “ACTIVATION OF MNRR1 / CHCHD2 AS A THERAPEUTIC TARGET FOR MITOCHONDRIA ASSOCIATED DISORDERS” (Wayne State University, priority 2024, published 2025).
# How the values were obtained:
# MNRR1 [1] = test: MNRR1 transcript levels in MELAS cells (RT-PCR); type: cell-based, human; conditions: relative to 18S rRNA
# Experimental: FIGS. 6A-6C: FIG. 6A: Above, Chemical structures of nitazoxanide, its metabolites, and similar compounds. Abbreviations: P4, Phenyl-4-aminosalicylic acid; 4ABA, 4-Aminobenzanilide; 4ASA, 4-Amino salicylic acid; BA, Benzanilide; PBO, Phenyl benzoate; PSA, Phenyl salicylic acid; 2AN, 2-Amino 5-nitrothiazole. Below, Equal amounts of lysates of MELAS cells treated with Vehicle (DMSO) or the various compounds (10 μM) for 24 h were separated on an SDS-PAGE gel and probed for MNRR1 levels. Actin was probed as a loading control and numbers below represent an average and SD of 3 biological replicates. FIGS. 6B-6C: MNRR1 transcript levels are shown relative to 18S rRNA (n=4 biological replicates, error bars represent SE). In all figures, * indicates p<0.05, ** indicates p<0.005.
# Real-time polymerase chain reaction (RT-PCR): Total cellular RNA was extracted from MELAS cells with a RNeasy Plus Mini Kit (Qiagen) according to the manufacturer's instructions. Complementary DNA (cDNA) was generated by reverse transcriptase polymerase chain reaction (PCR) using the ProtoScript® II First Strand cDNA Synthesis Kit (New England Biolabs, Ipswich, MA). Transcript levels were measured by real time PCR using SYBR green on an ABI 7500 system. Real-time analysis was performed by the ΔΔ^Ct method. […]
# HIF2α = HIF2α transcript levels (RT-PCR); type: cell-based, human; conditions: 18S rRNA as housekeeper
# Excerpt: FIG. 13: RT-PCR for measuring HIF2α levels. 18S rRNA was used as housekeeper for both analyses (n=3 biological replicates).
# Real-time polymerase chain reaction (RT-PCR): Total cellular RNA was extracted from MELAS cells with a RNeasy Plus Mini Kit (Qiagen) according to the manufacturer's instructions. Complementary DNA (cDNA) was generated by reverse transcriptase polymerase chain reaction (PCR) using the ProtoScript® II First Strand cDNA Synthesis Kit (New England Biolabs, Ipswich, MA). Transcript levels were measured by real time PCR using SYBR green on an ABI 7500 system. Real-time analysis was performed by the ΔΔ^Ct method. The primers used were MNRR1 forward: 5′-[…]-3′ (SEQ ID NO: 9), reverse: 5′-[…]-3′ (SEQ ID NO: 10); 18s forward: 5′-[…]-3′ (SEQ ID NO: 11), reverse: 5′-[…]-3′ (SEQ ID NO: 12), PHD1(EGLN2) forward: 5′-[…]-3′ (SEQ ID NO: 13), reverse: 3′-TCCTTGGCATCAAAATACC-5′ [32](SEQ ID NO: 14); PHD3(EGLN3) forward 5′-[…]-3′ (SEQ ID NO: 15), reverse: 3′-ATGCAGGTGATGCAGCGA-5′ [33](SEQ ID NO: 16) and HIF2α (EPAS1) forward: 5′-[…]-3′ (SEQ ID NO: 17), reverse: 3′-[…]-5′ (SEQ ID NO: 18).
# PHD3 = PHD3 protein levels in MELAS cybrid cells (immunoblot); type: cell-based, human; conditions: 10 μM, 24 h
# Experimental: FIGS. 14A-14D: PHD3 levels are reduced in MELAS cybrid cells and enhanced by nitazoxanide to increase MNRR1 levels. FIG. 14A: Transcript levels of PHD1, 2, and 3 in MELAS cybrid cells harboring the levels of heteroplasmy shown (data from). FIG. 14B: Protein levels of PHD3 in MELAS cybrid cells with 0% (CL9) and 70% heteroplasmy (DW7). GAPDH was probed as loading control. FIG. 14C: Equal amounts of MELAS cybrid cell lysates, treated with vehicle (DMSO), nitazoxanide, or tizoxanide (10 μM) for 24 h, were separated on an SDS-PAGE gel and probed for PHD1, PHD3, MNRR1, and Tubulin. FIG. 14D: Oxygen consumption measured from MELAS cybrid cells overexpressing PHD1 or PHD3. (n=4 biological replicates, error bars show SE).
# (§1) Immunoblotting: Immunoblotting was performed as described previously. Cell lysates for immunoblotting were prepared using RIPA buffer (Abcam, Waltham, MA) and included a protease and phosphatase inhibitor cocktail (Sigma, St. Louis, MO). Total protein extracts were obtained by centrifugation at 21,000×g for 30 min at 4° C. The clear supernatants were transferred to new tubes and quantified using the Bradford reagent with BSA as standard (BioRad, Hercules. CA). […] For detection after immunoblotting, the SuperSignal™ West Pico PLUS substrate (ThermoFisher, Waltham, MA) was used to generate chemiluminescence signal, which was detected with X-Ray film (RadTech, Vassar, MI).
# MNRR1 [2] = test: MNRR1 immunoblot in several other human cell lines; type: cell-based; conditions: 10 μM, 24 h
# Experimental: FIGS. 5A-5E: FIG. 5A: Venn diagram showing activators identified in HEK293 and MDA-MB-468 cells. FIG. 5B: Equal amounts of MELAS cells treated with Vehicle (DMSO) or various MNRR1 activating compounds (10 μM) for 24 h were separated on an SDS-PAGE gel and probed for MNRR1 levels. Actin was probed as a loading control and numbers below represent an average and standard deviation (SD) of two biological replicates. FIGS. 5C-5E: Equal amounts of cell lysates from various cell lines treated with vehicle (DMSO) or tizoxanide (10 μM) for 24 h were separated on an SDS-PAGE gel and probed for MNRR1 plus loading controls GAPDH or tubulin.
# as §1
smiles,measurement,setting,value
"CC(=O)Oc1ccccc1C(=O)Nc1ncc([N+](=O)[O-])s1 [nitazoxanide, Nitazoxanide]",MNRR1 transcription,MNRR1 [1],induced its transcription
same,HIF2α transcript levels,HIF2α,absence of any change
same,PHD3 protein level,PHD3,increasing
"O=C(Nc1ncc([N+](=O)[O-])s1)c1ccccc1O [tizoxanide, Tizoxanide]",MNRR1 transcription,MNRR1 [1],induced its transcription
same,MNRR1 level,MNRR1 [2],increase of MNRR1
same,HIF2α transcript levels,HIF2α,absence of any change
same,PHD3 protein level,PHD3,most increased
